Experimental data published in patent US8053418B2, “Anti-penicillin resistant pneumococci agent and novel 16-membered macrolide derivative” (Microbial Chemistry Research Foundation, priority 2005, dated 2011).
≈ marks a conversion by molar mass, not a printed value. Where “and” joins values, the source holds several entries; their conditions need not be identical. Equal entries are not always repeated. Entries after “also recorded” stand apart in the source; their conditions may differ.

What was measured:
[1] = tested on: Streptococcus pneumoniae IMC B-1235 (PRSP); experiment: Antimicrobial activity test (MIC), clinical isolate IMC B-1235; assay type: cell-based
Protocol: (§1) Using Streptococcus pneumoniae that include clinical isolates of PRSP, the antimicrobial activity of each of the prepared anti-PRSP agents was measured in accordance with the “determination method of minimum inhibitory concentration of drug against bacteria” of Japanese Society of Chemotherapy (for re-revised version, see Chemotherapy 29; 76, 1981).
(§2) 11 test strains of Streptococcus pneumoniae including IMC B-0919 are all clinical isolates, of which 2 strains, IMC B-0921 and IMC B-1229, are classified into penicillin susceptible Streptococcus pneumoniae (PSSP) and the remaining 9 strains are classified into penicillin-resistant Streptococcus pneumoniae (PRSP) (according to NCCLS standards).

[2] = tested on: Streptococcus pneumoniae IMC B-1236 (PRSP); experiment: Antimicrobial activity test (MIC), clinical isolate IMC B-1236; assay type: cell-based
Protocol: as §1, §2

[3] = tested on: Streptococcus pneumoniae IMC B-0920 (PRSP); experiment: Antimicrobial activity test (MIC), clinical isolate IMC B-0920; assay type: cell-based
Protocol: as §1, §2

[4] = tested on: Streptococcus pneumoniae IMC B-0919 (PRSP); experiment: Antimicrobial activity test (MIC), clinical isolate IMC B-0919; assay type: cell-based
Protocol: as §1, §2

[5] = tested on: Streptococcus pneumoniae IMC B-0922 (PRSP); experiment: Antimicrobial activity test (MIC), clinical isolate IMC B-0922; assay type: cell-based
Protocol: as §1, §2

[6] = tested on: Streptococcus pneumoniae IMC B-1234 (PRSP); experiment: Antimicrobial activity test (MIC), clinical isolate IMC B-1234; assay type: cell-based
Protocol: as §1, §2

[7] = tested on: Streptococcus pneumoniae IMC B-1231 (PRSP); experiment: Antimicrobial activity test (MIC), clinical isolate IMC B-1231; assay type: cell-based
Protocol: as §1, §2

[8] = tested on: general Gram-positive bacteria and Gram-negative bacteria; settings: Non-Patent Literatures 1 and 2, Patent Literature 1; cited from earlier work
[9] = tested on: Streptococcus pneumoniae IMC B-1229 (PSSP); experiment: Antimicrobial activity test (MIC), clinical isolate IMC B-1229; assay type: cell-based
Protocol: as §1, §2

[10] = tested on: Streptococcus pneumoniae IMC B-0921 (PSSP); experiment: Antimicrobial activity test (MIC), clinical isolate IMC B-0921; assay type: cell-based
Protocol: as §1, §2

[11] = tested on: penicillin-resistant Streptococcus pneumoniae (PRSP); experiment: Anti-PRSP activity, overall statements on the clinical isolates; assay type: cell-based; settings: statement in words
Protocol: as §1, §2
For the compounds of the present invention, MKT-1011, MKT-2003, MKT-3002 and MKT-3003, the antimicrobial activity was measured in the same way as in Experimental Example 1.

[12] = tested on: Streptococcus pneumoniae IMC B-1232 (PRSP); experiment: Antimicrobial activity test (MIC), clinical isolate IMC B-1232; assay type: cell-based
Protocol: as §1, §2

[13] = tested on: Streptococcus pneumoniae IMC B-1233 (PRSP); experiment: Antimicrobial activity test (MIC), clinical isolate IMC B-1233; assay type: cell-based
Protocol: as §1, §2

[14] = PRSP clinical isolate IMC B-1235
[15] = Streptococcus pneumoniae IMC B-1235, PRSP
[16] = PRSP clinical isolate IMC B-1236
[17] = Streptococcus pneumoniae IMC B-1236, PRSP
[18] = PRSP clinical isolate IMC B-0920
[19] = Streptococcus pneumoniae IMC B-0920, PRSP
[20] = Streptococcus pneumoniae IMC B-0919, PRSP
[21] = Streptococcus pneumoniae IMC B-0922, PRSP
[22] = Streptococcus pneumoniae IMC B-1234, PRSP
[23] = Streptococcus pneumoniae IMC B-1231, PRSP
[24] = PSSP clinical isolate IMC B-1229
[25] = PSSP clinical isolate IMC B-0921
[26] = PRSP clinical isolate IMC B-1232
[27] = PRSP clinical isolate IMC B-0919
[28] = PRSP clinical isolate IMC B-0922
[29] = PRSP clinical isolate IMC B-1234
[30] = PRSP clinical isolate IMC B-1233
[31] = PRSP clinical isolate IMC B-1231
[32] = Streptococcus pneumoniae IMC B-1229, PSSP
[33] = Streptococcus pneumoniae IMC B-0921, PSSP
[34] = Streptococcus pneumoniae IMC B-1232, PRSP
[35] = Streptococcus pneumoniae IMC B-1233, PRSP

Row | SMILES | MIC [1, 14] | MIC [1, 15] | MIC [2, 16] | MIC [2, 17] | MIC [3, 18] | MIC [3, 19] [µg/mL] | MIC [4, 20] | MIC [5, 21] | MIC [6, 22] | MIC [7, 23] | MIC [9, 24] [µg/mL] | MIC [10, 25] [µg/mL] | anti-PRSP activity [11] | MIC [12, 26] [µg/mL] | MIC [4, 27] [µg/mL] | MIC [5, 28] [µg/mL] | MIC [6, 29] [µg/mL] | MIC [13, 30] [µg/mL] | MIC [7, 31] [µg/mL] | MIC [9, 32] [µg/mL] | other results
1 | CC[C@H]1OC(=O)CC[C@H](C)[C@@H](O[C@@H]2O[C@H](C)C[C@H](N(C)C)[C@H]2O)[C@@H](CC=O)C[C@@H](C)C(=O)/C=C/C(C)=C/[C@@H]1CO [DDMT, 3,4′-dideoxymycaminosyltylonolide, reference compound] | >50 µg/mL and 50 µg/mL and 25 µg/mL | >50 µg/mL and 50 µg/mL | >50 µg/mL and 50 µg/mL and 25 µg/mL | 50 µg/mL and >50 µg/mL | 0.2 µg/mL and 0.39 µg/mL and 0.20 µg/mL | 0.39 (≈ 0.689 µM) | 0.39 µg/mL and 0.20 µg/mL | 0.39 µg/mL and 0.20 µg/mL | 0.20 µg/mL and 0.39 µg/mL and 0.2 µg/mL | >50 µg/mL and 50 µg/mL | – | – | – | – | – | – | – | – | – | – | antimicrobial effect [8]: excellent antimicrobial effect
2 | CCC1OC(=O)CCC(C)C(OC2OC(C)CC(N(C)C)C2O)C(CC=O)CC(C)C(=O)C=CC(C)=CC1COC(C)=O (stereo not drawn) [MKT-2002] | 25 µg/mL (≈ 41.1 µM) | – | 12.5 µg/mL (≈ 20.6 µM) | – | 0.05 µg/mL (≈ 0.0823 µM) | – | – | – | – | – | 0.1 (≈ 0.165 µM) | 0.1 (≈ 0.165 µM) | high anti-PRSP activity | 0.05 (≈ 0.0823 µM) | 0.1 (≈ 0.165 µM) | 0.1 (≈ 0.165 µM) | 0.1 (≈ 0.165 µM) | 0.05 (≈ 0.0823 µM) | 0.39 (≈ 0.642 µM) | – | –
3 | CCC1OC(=O)CCC(C)C(OC2OC(C)CC(N(C)C)C2O)C(CC=O)CC(C)C(=O)C=CC(C)=CC1CN(C)Cc1ccccc1 (stereo not drawn) [MKT-3002] | 3.13 µg/mL (≈ 4.68 µM) | 3.13 µg/mL (≈ 4.68 µM) | 3.13 µg/mL (≈ 4.68 µM) | 3.13 µg/mL (≈ 4.68 µM) | 0.2 µg/mL (≈ 0.299 µM) | 0.2 (≈ 0.299 µM) | 0.1 µg/mL (≈ 0.149 µM) | 0.1 µg/mL (≈ 0.149 µM) | <0.1 µg/mL | 50 µg/mL (≈ 74.7 µM) | 0.1 (≈ 0.149 µM) | 0.1 (≈ 0.149 µM) | high anti-PRSP activity | <0.025 | 0.1 (≈ 0.149 µM) | 0.1 (≈ 0.149 µM) | <0.1 | 0.1 (≈ 0.149 µM) | 50 (≈ 74.7 µM) | 0.1 (≈ 0.149 µM) | MIC [10, 33]: 0.1 µg/mL (≈ 0.149 µM); MIC [12, 34]: <0.025 µg/mL; MIC [13, 35]: 0.1 µg/mL (≈ 0.149 µM)
4 | CCC1OC(=O)CCC(C)C(OC2OC(C)CC(N(C)C)C2O)C(CC=O)CC(C)C(=O)C=CC(C)=CC1CSc1ccccn1 (stereo not drawn) [MKT-3003] | 1.56 µg/mL (≈ 2.37 µM) | 1.56 µg/mL (≈ 2.37 µM) | 1.56 µg/mL (≈ 2.37 µM) | 1.56 µg/mL (≈ 2.37 µM) | <0.025 µg/mL | <0.025 | <0.025 µg/mL | <0.025 µg/mL | <0.025 µg/mL | 50 µg/mL (≈ 75.9 µM) | 0.1 (≈ 0.152 µM) | <0.025 | high anti-PRSP activity; also recorded: inhibited the growth of PRSP at remarkably low concentrations | <0.025 | <0.025 | <0.025 | <0.025 | <0.025 | 50 (≈ 75.9 µM) | 0.1 (≈ 0.152 µM) | MIC [10, 33]: <0.025 µg/mL; MIC [12, 34]: <0.025 µg/mL; MIC [13, 35]: <0.025 µg/mL
